Legend:
Assay type in all cases: in vivo
[1] = tested on: Echinochloa crus-galli (ECHCG); experiment: Post-emergence herbicidal action against ECHCG; details: 20 g/ha, post-emergence at one-leaf stage, rated visually after about 3 weeks vs untreated controls
Protocol: (§1) ECHCG: Echinochloa crus-galli 2. Post-Emergence Herbicidal Action and Crop Plant Compatibility Seeds of monocotyledonous and dicotyledonous weeds and crop plants are placed in sandy loam in plastic or organic planting pots, covered with soil and cultivated in a greenhouse under controlled growth conditions. 2 to 3 weeks after sowing, the test plants are treated at the one-leaf stage. The compounds of the invention, formulated in the form of wettable powders (WP) or as emulsion concentrates (EC), are then sprayed onto the green parts of the plants as aqueous suspension or emulsion with addition of 0.5% additive at a water application rate of […] (converted). After the test plants had been kept in the greenhouse under optimum growth conditions for about 3 weeks, the activity of the preparations is rated visually in comparison to untreated controls. The tables below show the herbicidal activity of numerous compounds according to the invention against important harmful plants. For example, 100% activity=the plants have died, 0% activity=like control plants.

[2] = tested on: Amaranthus retroflexus (AMARE); experiment: Pre-emergence herbicidal action against AMARE; details: 80 g/ha, scored visually after about 3 weeks vs untreated controls
Excerpt: (§2) AMARE: Amaranthus retroflexus 1. Pre-Emergence Herbicidal Action and Crop Plant Compatibility Seeds of monocotyledonous and dicotyledonous weed plants and crop plants are placed in plastic or organic planting pots and covered with soil. The compounds of the invention, formulated in the form of wettable powders (WP) or as emulsion concentrates (EC), are then applied onto the surface of the covering soil as aqueous suspension or emulsion with addition of 0.5% additive at a water application rate of […] (converted). After the treatment, the pots are placed in a greenhouse and kept under good growth conditions for the trial plants. After about 3 weeks, the effect of the preparations is scored visually in comparison with untreated controls as percentages. The tables below show the herbicidal activity of numerous compounds according to the invention against important harmful plants. For example, 100% activity=the plants have died, 0% activity=like control plants.

Setaria viridis (SETVI) [3] = experiment: Post-emergence herbicidal action against SETVI; details: 20 g/ha, post-emergence at one-leaf stage, rated visually after about 3 weeks vs untreated controls
Protocol: as §1, with “SETVI: Setaria viridis” for “ECHCG: Echinochloa crus-galli”

[4] = tested on: Echinochloa crus-galli (ECHCG); experiment: Pre-emergence herbicidal action against ECHCG; details: 80 g/ha, scored visually after about 3 weeks vs untreated controls
Excerpt: as §2, with “ECHCG: Echinochloa crus-galli” for “AMARE: Amaranthus retroflexus”

Stellaria media (STEME) [5] = experiment: Pre-emergence herbicidal action against STEME; details: 80 g/ha, scored visually after about 3 weeks vs untreated controls
Excerpt: as §2, with “STEME: Stellaria media” for “AMARE: Amaranthus retroflexus”

Setaria viridis (SETVI) [6] = experiment: Pre-emergence herbicidal action against SETVI; details: 80 g/ha, scored visually after about 3 weeks vs untreated controls
Excerpt: as §2, with “SETVI: Setaria viridis” for “AMARE: Amaranthus retroflexus”

Viola tricolor (VIOTR) = experiment: Pre-emergence herbicidal action against VIOTR; details: 80 g/ha, scored visually after about 3 weeks vs untreated controls
Excerpt: as §2, with “VIOTR: Viola tricolor” for “AMARE: Amaranthus retroflexus”

[7] = tested on: Amaranthus retroflexus (AMARE); experiment: Post-emergence herbicidal action against AMARE; details: 20 g/ha, post-emergence at one-leaf stage, rated visually after about 3 weeks vs untreated controls
Protocol: as §1, with “AMARE: Amaranthus retroflexus” for “ECHCG: Echinochloa crus-galli”

[8] = tested on: Abutilon theophrasti (ABUTH); experiment: Pre-emergence herbicidal action against ABUTH; details: 80 g/ha, scored visually after about 3 weeks vs untreated controls
Excerpt: as §2, with “ABUTH: Abutilon theophrasti” for “AMARE: Amaranthus retroflexus”

[9] = tested on: Abutilon theophrasti (ABUTH); experiment: Post-emergence herbicidal action against ABUTH; details: 20 g/ha, post-emergence at one-leaf stage, rated visually after about 3 weeks vs untreated controls
Protocol: as §1, with “ABUTH: Abutilon theophrasti” for “ECHCG: Echinochloa crus-galli”

Veronica persica (VERPE) = experiment: Pre-emergence herbicidal action against VERPE; details: 80 g/ha, scored visually after about 3 weeks vs untreated controls
Excerpt: as §2, with “VERPE: Veronica persica” for “AMARE: Amaranthus retroflexus”

Stellaria media (STEME) [10] = experiment: Post-emergence herbicidal action against STEME; details: 20 g/ha, post-emergence at one-leaf stage, rated visually after about 3 weeks vs untreated controls
Protocol: as §1, with “STEME: Stellaria media” for “ECHCG: Echinochloa crus-galli”

## CCn1ncc(C(=O)c2ccc(C(F)(F)F)c3c2SCCS3)c1O [Example 1-65]
[1]
  Post-emergence action against ECHCG: 80%
[2]
  Pre-emergence action against AMARE: 100%
Setaria viridis (SETVI) [3]
  Post-emergence action against SETVI: 100%
[4]
  Pre-emergence action against ECHCG: 80%
Stellaria media (STEME) [5]
  Pre-emergence action against STEME: 100%
Setaria viridis (SETVI) [6]
  Pre-emergence action against SETVI: 90%
Viola tricolor (VIOTR)
  Pre-emergence action against VIOTR: 100%
[7]
  Post-emergence action against AMARE: 80%

## CCn1ncc(C(=O)c2ccc(C(F)(F)F)c3c2OCCS3)c1O [Example 1-20]
[1]
  Post-emergence action against ECHCG: 80%
[2]
  Pre-emergence action against AMARE: 100%
Setaria viridis (SETVI) [3]
  Post-emergence action against SETVI: 80%
[8]
  Pre-emergence action against ABUTH: 100%
[4]
  Pre-emergence action against ECHCG: 100%
Stellaria media (STEME) [5]
  Pre-emergence action against STEME: 100%
Setaria viridis (SETVI) [6]
  Pre-emergence action against SETVI: 100%
Viola tricolor (VIOTR)
  Pre-emergence action against VIOTR: 100%
[9]
  Post-emergence action against ABUTH: 80%

## Cn1nc(C2CC2)c(C(=O)c2ccc(C(F)(F)F)c3c2OCCS3(=O)=O)c1O [Example 1-119]
Veronica persica (VERPE)
  Pre-emergence action against VERPE: 90%
[2]
  Pre-emergence action against AMARE: 100%
[8]
  Pre-emergence action against ABUTH: 100%
[4]
  Pre-emergence action against ECHCG: 80%
Stellaria media (STEME) [5]
  Pre-emergence action against STEME: 100%
Stellaria media (STEME) [10]
  Post-emergence action against STEME: 100%
Viola tricolor (VIOTR)
  Pre-emergence action against VIOTR: 100%
[7]
  Post-emergence action against AMARE: 100%
[9]
  Post-emergence action against ABUTH: 90%

## Cc1nn(C)c(O)c1C(=O)c1ccc(C(F)(F)F)c2c1OCCS2 [Example 1-25]
[1]
  Post-emergence action against ECHCG: 90%
Veronica persica (VERPE)
  Pre-emergence action against VERPE: 80%
[2]
  Pre-emergence action against AMARE: 100%
[8]
  Pre-emergence action against ABUTH: 100%
[4]
  Pre-emergence action against ECHCG: 90%
Stellaria media (STEME) [5]
  Pre-emergence action against STEME: 90%
Setaria viridis (SETVI) [6]
  Pre-emergence action against SETVI: 100%
Stellaria media (STEME) [10]
  Post-emergence action against STEME: 100%
Viola tricolor (VIOTR)
  Pre-emergence action against VIOTR: 100%

## CCn1ncc(C(=O)c2ccc(C(F)(F)F)c3c2SCS3)c1O [Example 1-63]
[1]
  Post-emergence action against ECHCG: 80%
[2]
  Pre-emergence action against AMARE: 100%
Stellaria media (STEME) [5]
  Pre-emergence action against STEME: 90%
Stellaria media (STEME) [10]
  Post-emergence action against STEME: 80%
Viola tricolor (VIOTR)
  Pre-emergence action against VIOTR: 100%
[7]
  Post-emergence action against AMARE: 100%
[9]
  Post-emergence action against ABUTH: 80%

Reference: patent publication US20210323950A1, “HERBICIDALLY ACTIVE BICYCLIC BENZOYLPYRAZOLES” (Bayer Aktiengesellschaft, priority 2018, published 2021)
